US8173682B2, “Substituted pyridones as inhibitors of poly(ADP-ribose) polymerase (PARP)” (Aventis Pharmaceuticals Inc., priority 2004, dated 2012)
Structures can show the parent of a compound that is named as a salt.

Molecular target: T1, recombinant human PARP (PARP1) (Homo sapiens, UniProt P09874)
T1 construct: Full length human PARP (PARP1) is assembled from PCR fragments; His6 tag with TEV site, from the pFastBac-HTb vector (own knowledge of the vector); made in house; host or cells: insect cells, baculovirus (Bac-to-Bac, Gibco-BRL)
T1 sequence (P09874 whole entry, the tested form may be a part): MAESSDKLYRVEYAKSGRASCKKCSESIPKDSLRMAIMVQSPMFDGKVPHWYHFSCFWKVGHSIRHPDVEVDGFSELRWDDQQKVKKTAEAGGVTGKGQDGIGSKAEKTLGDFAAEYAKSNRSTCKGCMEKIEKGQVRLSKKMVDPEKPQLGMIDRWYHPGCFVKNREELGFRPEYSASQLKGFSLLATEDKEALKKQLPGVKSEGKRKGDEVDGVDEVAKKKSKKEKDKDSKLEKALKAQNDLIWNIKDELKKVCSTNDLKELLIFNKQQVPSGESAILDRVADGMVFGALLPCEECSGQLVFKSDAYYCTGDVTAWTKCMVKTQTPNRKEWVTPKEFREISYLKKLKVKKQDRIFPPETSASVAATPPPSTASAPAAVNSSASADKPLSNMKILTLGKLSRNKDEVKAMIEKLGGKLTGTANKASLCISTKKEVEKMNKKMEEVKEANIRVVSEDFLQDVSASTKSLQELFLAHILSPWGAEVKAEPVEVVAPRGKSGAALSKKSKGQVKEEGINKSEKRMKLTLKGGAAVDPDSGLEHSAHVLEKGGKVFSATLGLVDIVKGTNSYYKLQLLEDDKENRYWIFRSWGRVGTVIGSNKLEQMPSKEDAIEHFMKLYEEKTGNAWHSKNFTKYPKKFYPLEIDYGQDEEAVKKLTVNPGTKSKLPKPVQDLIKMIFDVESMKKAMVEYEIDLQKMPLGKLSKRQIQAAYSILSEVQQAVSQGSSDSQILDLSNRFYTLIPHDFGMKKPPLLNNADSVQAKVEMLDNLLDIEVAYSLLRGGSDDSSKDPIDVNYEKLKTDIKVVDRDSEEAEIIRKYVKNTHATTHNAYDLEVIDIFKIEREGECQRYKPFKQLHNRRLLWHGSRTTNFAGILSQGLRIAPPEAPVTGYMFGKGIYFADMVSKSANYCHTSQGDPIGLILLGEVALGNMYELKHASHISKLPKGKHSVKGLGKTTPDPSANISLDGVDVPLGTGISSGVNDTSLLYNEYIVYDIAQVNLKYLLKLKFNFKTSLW
Experiment: PARP enzyme assay, Method A (radioactivity or 'ELISA' enzyme assay with partially purified enzyme)
Format: biochemical
Conditions: recombinant human PARP preparation, radioactive or ELISA enzyme assay
Description: Two different methods are employed in determining the activity of the compounds of this invention in inhibiting the activity of PARP enzyme, designated as Method A and Method B respectively as set forth below.
Method A: Cloning and Expression, and Partial Purification of Recombinant Human PARP:
Full length human PARP (PARP1) is assembled from PCR fragments of a clone from a human brain cDNA library and two Incyte clones. The PARP gene (3046 bp) is sub-cloned into pFastBac-HTb vector to give PARP-pFastBac-HTb and the sequence of this clone is verified. PARP-pFastBac-HTb is expressed to obtain protein using the Bac-to-Bac expression protocol from Gibco-BRL. The recombinant virus generated is used to scale up the material for purification.
Cell pellets from cell broth of cells expressing PARP are treated with a cocktail of protease inhibitors and lysed by 4 freeze-thaw cycles. The material is suspended in 10 mM HEPES/0.1M NaCl/pH 7.2, stirred, and then centrifuged. A 40%-70% ammonium sulfate cut of protein pellet is obtained from the supernatant. The pellet is solubilized in 10 mM HEPES/pH 7.2 and centrifuged. The supernatant buffer is exchanged to 10 mM HEPES/pH 7.2/0.1M NaCl/25% glycerol by dialysis or with a desalting column. The enzyme preparation is stored at −20° C. until use.
The compounds of this invention are then tested with this enzyme preparation using either the radioactive enzyme assay or by the “ELISA” enzyme assay as set forth below.
Radioactivity Enzyme Assay:
Incorporation of radioactivity from labeled NAD into acid-precipitated protein is measured. The reaction mixture (volume 100 μL or 50 μL, in a test-tube or 96-well plate) contained 100 μg/mL calf thymus DNA (sonicated), 100 μg/mL histones, 100 mM Tris (pH 8.0), 1.0 mM DTT, 10 mM MgCl2, NAD (200 μM, 0.65 microcurie/mL), and varying amounts of enzyme. The reaction was incubated for 10 min at 37° C. or at room temperature for 60 min. The reaction was stopped and protein precipitated by addition of ice-cold trichloroacetic acid (TCA; 10% or 20% aqueous w/v). After brief storage in ice or at 4° C. for 2 hrs, the reaction mixture is filtered under vacuum through a glass fiber filter (2.5 cm disc, or 96-well filter plate). After washing with TCA and ethanol, the filter is dried and counted for tritium CPM after addition of scintillation fluid.
Incorporation of biotin-NAD into histone coated on plate is measured. A 96-well protein-binding EIA plate is coated with histone and blocked with bovine serum albumin. The reaction mixture (50 μL) contained DNA, buffer, enzyme, (test compound), and 250 μM of NAD and 5 μL of biotin-NAD (Trevigen). After reaction at room temperature the wells are washed and treated with Extravidin (Sigma). After incubation and washing color is developed with the peroxidase substrate TMB (Sigma). The TMB reaction is quenched with 2M sulfuric acid and the absorbance at 450 nm is read.

SMILES	IC50
CCc1cc(-c2ccc(CN[C@H]3CC[C@H](O)CC3)s2)c(C)[nH]c1=O [Example 125, 3-Ethyl-5-{5-[(4-hydroxycyclohexylamino)methyl]thiophen-2-yl]-6-methyl-1H-pyridin-2-one hydrochloride]	0.45 µM
CCc1cc(-c2ccc(S(=O)(=O)N3CCN(CCN4CCCC4)CC3)s2)c(C)[nH]c1=O [Example 61, 3-Ethyl-6-methyl-5-{5-[4-(2-pyrrolidin-1-yl)ethylpiperazine-1-sulfonyl]thiophen-2-yl}-1H-pyridin-2-one dihydrochloride]	0.43 µM
CCc1cc(-c2ccc(S(=O)(=O)N3CCNCC3)s2)c(C)[nH]c1=O [Example 94, 3-Ethyl-6-methyl-5-[5-(piperazine-1-sulfonyl)thiophen-2-yl]-1H-pyridin-2-one hydrochloride]	1.4 µM
CCc1cc(-c2ccc(S(=O)(=O)NCc3ccc(C)o3)s2)c(C)[nH]c1=O [Example 35, 5-(5-Ethyl-2-methyl-6-oxo-1,6-dihydropyridin-3-yl)thiophene-2-sulfonic acid (5-methylfuran-2-yl)methylamide]	10.9 µM
CCc1cc(-c2ccc(S(=O)(=O)NC3CCN(CC4CC4)CC3)s2)c(C)[nH]c1=O [Example 74, 5-[5-Ethyl-2-methyl-6-oxo-1,6-dihydropyridin-3-yl]thiophene-2-sulfonic acid (1-cyclopropylmethylpiperidin-4-yl)amide hydrochloride]	0.36 µM
CCc1cc(-c2ccc(S(=O)(=O)NC3CCN(Cc4ncc[nH]4)CC3)s2)c(C)[nH]c1=O [Example 83, 5-[5-Ethyl-2-methyl-6-oxo-1,6-dihydropyridin-3-yl]thiophene-2-sulfonic acid (1-imidazol-2-yl)methyl(piperidin-4-yl)]amide dihydrochloride]	2.8 µM
CCc1cc(-c2nnco2)c(C)[nH]c1=O [Example 14, 3-Ethyl-6-methyl-5-(1,3,4-oxadiazol-2-yl)-1H-pyridin-2-one]	0.56 µM
CCc1cc(-c2ccc(S(=O)(=O)N3CCN(CCN(C)C)CC3)s2)c(C)[nH]c1=O [Example 64, 5-{5-[4-(2-Dimethylaminoethyl)piperazine-1-sulfonyl]thiophen-2-yl}-3-ethyl-6-methyl-1H-pyridn-2-one dihydrochloride]	1.5 µM
CCc1cc(-c2ccc(CN3CCC(O)(c4ccccc4)CC3)s2)c(C)[nH]c1=O [Example 185, 3-Ethyl-5-[5-(4-hydroxy-4-phenylpiperidin-1-ylmethyl)thiophen-2-yl]-6-methyl-1H-pyridin-2-one hydrochloride]	1.8 µM
CCc1cc(-c2ccc(S(=O)(=O)NCCC3CCCN3C)s2)c(C)[nH]c1=O (centres unmarked) [Example 36, 5-(5-Ethyl-2-methyl-6-oxo-1,6-dihydropyridin-3-yl)thiophene-2-sulfonic Acid [2-(1-methylpyrrolidin-2-yl)ethyl]amide hydrochloride]	3.7 µM
CCc1cc(-c2ccc(S(=O)(=O)NCC(O)c3ccccc3)s2)c(C)[nH]c1=O (centres unmarked) [Example 114, 5-(5-Ethyl-2-methyl-6-oxo-1,6-dihydropyridin-3-yl)thiophene-2-sulfonic acid (2-hydroxy-2-phenylethyl)amide]	0.37 µM
CCc1cc(-c2ccc(S(=O)(=O)NC3CCN(CC4CCCCC4)CC3)s2)c(C)[nH]c1=O [Example 75, 5-(5-Ethyl-2-methyl-6-oxo-1,6-dihydropyridin-3-yl)thiophene-2-sulfonic acid (1-cyclohexylmethylpiperidin-4-yl)amide hydrochloride]	0.3 µM
CCc1cc(-c2ccc(S(=O)(=O)NCCCN(C)C)s2)c(C)[nH]c1=O [Example 34, 5-(5-Ethyl-2-methyl-6-oxo-1,6-dihydropyridin-3-yl)thiophene-2-sulfonic acid (3-dimethylaminopropyl)amide hydrochloride]	4.5 µM
CCc1cc(-c2nc(C)no2)c(C)[nH]c1=O [Example 19, 3-Ethyl-6-methyl-5-(3-methyl-1,2,4-oxadiazol-5-yl)-1H-pyridin-2-one]	0.23 µM
CCc1cc(-c2ccc(S(=O)(=O)N3CCCN(C)CC3)o2)c(C)[nH]c1=O [Example 52, 3-Ethyl-6-methyl-5-[5-(4-methyl-1,4-diazepane-1-sulfonyl)furan-2-yl]-1H-pyridin-2-one hydrochloride]	0.38 µM
CCc1cc(-c2ccc(S(=O)(=O)NCC(C)O)s2)c(C)[nH]c1=O (centres unmarked) [Example 113, 5-(5-Ethyl-2-methyl-6-oxo-1,6-dihydropyridin-3-yl)thiophene-2-sulfonic acid (2-hydroxypropyl)amide]	0.9 µM
CCc1cc(-c2ccc(CNCc3cccs3)s2)c(C)[nH]c1=O [Example 170, 3-Ethyl-6-methyl-5-(5-{[(thiophen-2-ylmethyl)amino]methyl}-thiophen-2-yl)-1H-pyridin-2-one hydrochloride]	0.28 µM
CCc1cc(-c2ccc(CNC3CCCC3)s2)c(C)[nH]c1=O [Example 189, 5-(5-Cyclopentylaminomethylthiophen-2-yl)-3-ethyl-6-methyl-1H-pyridin-2-one hydrochloride]	0.41 µM
CCc1cc(-c2n[nH]c(C)n2)c(C)[nH]c1=O [Example 21, 3-Ethyl-6-methyl-5-(5-methyl-2H-1,2,4-triazol-3-yl)-1H-pyridin-2-one]	0.17 µM
CCc1cc(-c2ccc(S(=O)(=O)N3CCC(N4CCCC4)CC3)s2)c(C)[nH]c1=O [Example 66, 3-Ethyl-6-methyl-5-{5-[(4-pyrrolidin-1-yl)piperidine-1-sulfonyl]thiophen-2-yl}-1H-pyridin-2-one hydrochloride]	0.67 µM
CCc1cc(-c2ccc(S(=O)(=O)NCCCN(CC)CC)s2)c(C)[nH]c1=O [Example 96, 5-(5-Ethyl-2-methyl-6-oxo-1,6-dihydropyridin-3-yl)-thiophene-2-sulfonic acid (3-diethylaminopropyl)amide hydrochloride]	0.72 µM
CCc1cc(-c2ccc(S(=O)(=O)N3CCN(CCOCCO)CC3)s2)c(C)[nH]c1=O [Example 99, 3-Ethyl-5-(5-{4-[2-(2-hydroxy-ethoxy)-ethyl]-piperazine-1-sulfonyl}-thiophen-2-yl)-6-methyl-1H-pyridin-2-one hydrochloride]	1.3 µM
CCc1cc(-c2ccc(CNCc3ccccc3OC)s2)c(C)[nH]c1=O [Example 187, 3-Ethyl-5-{5-[(2-methoxybenzylamino)methyl]thiophen-2-yl}-6-methyl-1H-pyridin-2-one hydrochloride]	0.4 µM
CCc1cc(-c2ccc(S(=O)(=O)NC3CCN(Cc4ccccc4)CC3)o2)c(C)[nH]c1=O [Example 46, 5-(5-Ethyl-2-methyl-6-oxo-1,6-dihydropyridin-3-yl)furan-2-sulfonic acid (1-benzylpiperidin-4-yl)amide hydrochloride]	0.46 µM
CCc1cc(-c2ccc(CNC3CCc4ccccc4C3)s2)c(C)[nH]c1=O (centres unmarked) [Example 134, 3-Ethyl-6-methyl-5-{5-[(1,2,3,4-tetrahydro-naphthalen-2-ylamino)-methyl]thiophen-2-yl}-1H-pyridin-2-one hydrochloride]	0.8 µM
CCc1cc(-c2ccc(CNCc3cc(F)cc(F)c3)s2)c(C)[nH]c1=O [Example 158, 5-[5-(3,5-Difluorobenzylaminomethyl)thiophen-2-yl]-3-ethyl-6-methyl-1H-pyridin-2-one hydrochloride]	0.51 µM
CCc1cc(-c2ccc(CNC3CCN(CC4CCCCC4)CC3)s2)c(C)[nH]c1=O [Example 132, 5-{5-[(1-Cyclohexylmethyl-piperidin-4-ylamino)-methyl]thiophen-2-yl}-3-ethyl-6-methyl-1H-pyridin-2-one dihydrochloride]	1.3 µM
CCc1cc(-c2ccc(CN3CCC(=O)CC3)s2)c(C)[nH]c1=O [Example 150, 3-Ethyl-6-methyl-5-[5-(4-oxo-piperidin-1-ylmethy)-thiophen-2-yl]-1H-pyridin-2-one hydrochloride]	1.3 µM
CCc1cc(-c2ccc(S(N)(=O)=O)s2)c(C)[nH]c1=O [Example 111, 5-(5-ethyl-2-methyl-6-oxo-1,6-dihydro-pyridin-3-yl)-thiophene-2-sulfonic acid amide]	0.21 µM
